These results are taken from publication PMC7445743 (Journal of Medicinal Chemistry, 2020).

Data set [1] addresses T1, SYK (Homo sapiens, UniProt P43405). The conditions noted are these: supplement CSV.
Another data set addresses CAMK1G (Homo sapiens, UniProt Q96NX5). The conditions noted are these: supplement CSV.
Data set [2] deals with T1, SYK. Description: biochemical. To be noted: read-out: Tm shift SYK.
For another data set, the target named is CAMK2A (Homo sapiens, UniProt Q9UQM7). To be noted: supplement CSV.
Sequence of CAMK2A (Q9UQM7 whole entry): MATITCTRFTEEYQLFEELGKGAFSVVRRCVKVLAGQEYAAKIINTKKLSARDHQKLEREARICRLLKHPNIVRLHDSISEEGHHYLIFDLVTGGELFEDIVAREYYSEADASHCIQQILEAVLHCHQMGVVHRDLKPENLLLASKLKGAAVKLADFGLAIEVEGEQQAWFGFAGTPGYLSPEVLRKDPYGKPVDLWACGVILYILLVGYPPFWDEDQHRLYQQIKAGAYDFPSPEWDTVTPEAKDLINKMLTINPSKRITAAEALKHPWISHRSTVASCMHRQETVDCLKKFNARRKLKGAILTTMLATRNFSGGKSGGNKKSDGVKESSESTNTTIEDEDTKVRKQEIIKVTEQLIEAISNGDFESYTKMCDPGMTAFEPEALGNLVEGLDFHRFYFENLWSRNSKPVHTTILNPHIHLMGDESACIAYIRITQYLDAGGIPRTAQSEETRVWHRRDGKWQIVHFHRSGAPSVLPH
Data set [3] is described as follows: Hepatocyte metabolism (Heps). It counts as in vitro ADME.
The nature of data set [4]: in vitro. To be noted: human, plasma.
The next data set in a line: in vivo. To be noted: male, Crl:CD Sprague-Dawley, rat, iv, 2 mg/kg.
The next data set deals with NGS mice. Briefly: Tolerability study in NGS mice. It counts as in vivo. The conditions noted are these: 40 mg/kg once daily for 21 days, 50:45:5 PEG400/water/ethanol.
A short description of data set [5]: Microsome metabolism (MICs).
Data set [6] in a line: in vitro. To be noted: rat, plasma.
Another data set deals with T2, PKNB(M.tuberculosis) (Mycobacterium tuberculosis, UniProt P9WI81).
T2 construct: purchased DiscoverX (Eurofins) KINOMEscan scanMAX; first lines in-house DSF / ADP-Glo
T2 sequence (P9WI81 whole entry): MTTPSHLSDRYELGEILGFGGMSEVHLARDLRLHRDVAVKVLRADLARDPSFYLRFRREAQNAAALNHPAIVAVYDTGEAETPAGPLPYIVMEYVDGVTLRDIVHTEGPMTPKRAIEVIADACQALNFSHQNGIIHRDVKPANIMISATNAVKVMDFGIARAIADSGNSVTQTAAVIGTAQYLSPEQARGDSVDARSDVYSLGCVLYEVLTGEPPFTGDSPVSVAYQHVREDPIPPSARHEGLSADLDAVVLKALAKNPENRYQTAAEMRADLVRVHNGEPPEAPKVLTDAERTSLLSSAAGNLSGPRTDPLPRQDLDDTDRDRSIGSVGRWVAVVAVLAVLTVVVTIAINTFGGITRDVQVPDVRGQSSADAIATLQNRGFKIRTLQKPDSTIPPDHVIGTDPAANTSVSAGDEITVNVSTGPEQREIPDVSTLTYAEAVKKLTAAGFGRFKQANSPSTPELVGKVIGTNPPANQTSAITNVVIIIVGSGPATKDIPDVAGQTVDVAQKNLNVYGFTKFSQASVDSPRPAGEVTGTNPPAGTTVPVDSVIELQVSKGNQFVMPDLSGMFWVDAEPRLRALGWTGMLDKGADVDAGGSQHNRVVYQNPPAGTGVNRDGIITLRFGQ
Description: KINOMEscan. It counts as binding.

The nature of data set [7]: Microsome metabolism (MICs). The source holds these as a separate data set.
Data set [8] in a line: Microsome metabolism (MICs). The source holds these as a separate data set.
In the next data set the target is PAK4 (Homo sapiens, UniProt O96013). The conditions noted are these: supplement CSV.
Sequence of PAK4 (O96013 whole entry): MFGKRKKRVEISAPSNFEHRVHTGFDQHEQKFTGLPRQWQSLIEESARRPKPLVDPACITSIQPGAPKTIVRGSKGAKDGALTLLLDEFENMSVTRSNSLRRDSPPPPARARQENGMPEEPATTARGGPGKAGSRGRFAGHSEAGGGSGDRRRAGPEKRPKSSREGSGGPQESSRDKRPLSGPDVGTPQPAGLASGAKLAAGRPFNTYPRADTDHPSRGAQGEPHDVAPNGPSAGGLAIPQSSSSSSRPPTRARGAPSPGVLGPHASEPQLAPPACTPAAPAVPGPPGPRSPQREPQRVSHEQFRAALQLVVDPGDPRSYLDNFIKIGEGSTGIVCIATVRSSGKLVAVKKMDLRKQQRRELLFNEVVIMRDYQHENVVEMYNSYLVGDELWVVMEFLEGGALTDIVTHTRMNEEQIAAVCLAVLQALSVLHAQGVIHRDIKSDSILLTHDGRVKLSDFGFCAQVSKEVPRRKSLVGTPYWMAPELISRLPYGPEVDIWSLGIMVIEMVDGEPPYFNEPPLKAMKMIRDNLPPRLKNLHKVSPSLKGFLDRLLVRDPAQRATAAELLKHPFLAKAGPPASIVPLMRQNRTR
Data set [9] can be described thus: in vitro. The conditions noted are these: mouse, plasma.
Data set [10] relates to kinase panel (468 Assays Tested). Briefly: Pan-kinome selectivity, competitive binding assay (KINOMEscan). The conditions noted are these: for S-Score(35): 1 μM.
For data set [11], the system named is diet induced obesity mouse model. Description: OGTT in DIO mice, chronic (14 day) dosing study. The conditions noted are these: twice daily for 14 days (25 mg/kg). It counts as in vivo, male C57Bl/6J mice. The procedure: Upon completion of the OGTT, all animals were singly housed with food provided as above for 2 weeks prior to the onset of the baseline phase of the chronic study. Upon single housing after the OGTT, mice were placed on a reverse-phase light–dark cycle (lights off 09:30–17:30). Following this period, the animals underwent a 5-day baseline phase where they were dosed twice daily with vehicle at approximately 08:45 and 16:45 each day. Toward the end of the baseline phase mice were reallocated to dosing groups (8 animals per group) such that groups within the study were balanced as closely as possible for body weight, food and water intake, and previous treatment. From day 1 onward, mice were dosed orally twice daily with 25 mg/kg 18 formulated in a vehicle of DMSO (10% final volume) and 20% (2-hydroxypropyl)-β-cyclodextrin (90% final volume) on days 1–6 and 1% methyl cellulose at 5 mL/kg on subsequent days or twice daily orally with vehicle alone or subcutaneously with 0.1 mg/kg liraglutide (Bachem) formulated in pH 7.4 phosphate buffer solution. Oral dosing began at approximately 08:45 and 16:45, with subcutaneous dosing at 08:45 only. […] Plasma glucose and insulin data from the OGTTs were analyzed by robust regression with treatment as a factor and bleeding order and day 1 body weight as covariates. […]

The test system is the same in data set [12]. Description: OGTT in DIO mice, acute dosing study. It counts as in vivo, male C57Bl/6J mice. The conditions noted are these: single oral dose of 25 or 50 mg/kg 4 h prior to OGTT, vs vehicle. Here is the method:
Animals were allocated to dosing groups (6 mice per group) such that groups were balanced as closely as possible for mean body weight. The day prior to the OGTT, all animals were deprived of food (but not water) beginning approximately 16:45. The following morning, the mice were dosed with vehicle or either 10 mg/kg, 25 mg/kg, or 50 mg/kg 18 formulated in a vehicle of DMSO (10% final volume) and 20% (2-hydroxypropyl)-β-cyclodextrin (90% final volume) by the oral route (beginning at 08:45). Four hours after dosing, a blood sample was taken (B1), and 3 min later glucose was administered (2 g/kg orally). Further blood samples were taken 10, 30, 60, and 90 min after glucose administration. Between blood sampling, animals were returned to the home cage with free access to water (but not food). Blood samples (approximately 30 μL) were collected into lithium heparinized tubes (Sarstedt Microvette CB300LH), and plasma was separated by centrifugation to produce a single aliquot of plasma, which was frozen (approximately −80 °C) and subsequently assayed for glucose (in duplicate; Thermoelectron Infinity glucose reagent TR15498) and insulin (single replicate; Alpco mouse ultrasensitive insulin kit 80, INSMSU-E10).

Where a name gives a salt, the structure may show the parent alone. A value given as a limit tells only on which side of the number the result lay.

Sequence of CAMK1G (Q96NX5 whole entry): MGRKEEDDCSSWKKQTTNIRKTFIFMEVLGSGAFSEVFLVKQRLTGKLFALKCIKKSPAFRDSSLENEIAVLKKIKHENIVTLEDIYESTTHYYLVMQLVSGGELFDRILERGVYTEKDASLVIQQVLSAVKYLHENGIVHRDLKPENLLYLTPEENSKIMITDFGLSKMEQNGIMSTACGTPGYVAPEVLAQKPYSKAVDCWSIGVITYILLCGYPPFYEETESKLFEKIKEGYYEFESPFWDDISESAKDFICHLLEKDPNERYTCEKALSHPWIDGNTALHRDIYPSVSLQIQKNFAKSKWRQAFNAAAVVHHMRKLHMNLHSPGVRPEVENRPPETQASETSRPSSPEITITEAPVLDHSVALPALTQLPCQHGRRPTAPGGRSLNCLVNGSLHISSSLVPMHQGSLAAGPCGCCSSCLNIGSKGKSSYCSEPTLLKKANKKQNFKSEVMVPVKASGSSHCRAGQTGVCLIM

As for `NC(=O)c1cnc(N2CCC[C@@H](N)C2)nc1Nc1cccc(C(F)(F)F)c1` [Compound 7, (R)-2-(3-Aminopiperidin-1-yl)-4-((3-(trifluoromethyl)phenyl)amino)pyrimidine-5-carboxamide Hydrochloride], the “SYK Tm” value on SYK [1] was 6.82 0C. The “CAMK1G Tm” value at CAMK1G is recorded as 6.58 0C. For the same compound, the ΔTm at 10 µM on SYK [2] is 6.82 °C. Also, the “CAMK2A Tm” value at CAMK2A was 1.17 0C.

By fraction unbound is commonly meant free concentration divided by total concentration. A higher fraction unbound goes with weak binding. Usually clearance stands for the rate of elimination divided by the concentration. Low readings indicate a low capacity for elimination, high ones a high capacity for elimination. `CC(C)c1cc(Nc2nc(N3CCC[C@H](N)C3)ncc2C(N)=O)cc(C(C)C)n1` [Compound 19, (S)-2-(3-Aminopiperidin-1-yl)-4-((2,6-diisopropylpyridin-4-yl)amino)pyrimidine-5-carboxamide]: the “human Heps” value in [3] was 19 μL·min^–1 per 10^6 cells. Moreover, the fraction unbound in the data set “in vitro [4]” was 0.11; in “in vitro [6]” it was 0.08; in “in vitro [9]”, 0.06. The compound also had a clearance in “in vivo” of 36.5 mL/min/kg. For the same compound, in the data set with NGS mice, the tolerability result is “no observable adverse effects”. Also, the “CAMK1G Tm” value on CAMK1G was 16.35 0C. Also, in data set [5], the “rat MICs” value worked out at 3 μL·min^–1·mg^–1. On PKNB(M.tuberculosis), the remaining binding at 1 µM amounted to 83%. Also, the “human MICs” value in data set [7] came out at 7 μL·min^–1·mg^–1. The “mouse MICs” value in [8] was determined as 6 μL·min^–1·mg^–1. The “PAK4 Tm” value at PAK4 is 3.31 0C. Moreover, the “S-Score(35)” value in data set [10] turned out to be 0.03.

Turning to `CC(C)(C#N)c1cc(Nc2nc(N3CCC[C@H](N)C3)ncc2C(N)=O)cc(C(C)(C)C#N)c1` [Compound 18, (S)-2-(3-Aminopiperidin-1-yl)-4-((3,5-bis(2-cyanopropan-2-yl)phenyl)amino)pyrimidine-5-carboxamide Hydrochloride], in data set [11], the “baseline glucose and insulin levels, peak glucose following OGTT” value is “reduced baseline glucose and insulin levels, as well as reduced peak glucose levels”; the “glucose AUCB2” value is “no effect”. For the same compound, in data set [12], the “glucose control and insulin sensitivity in OGTT” value is “improved glucose control and increased insulin sensitivity”. In addition, the “rat MICs” value in data set [5] is less than 1 μL·min^–1·mg^–1. Moreover, at PKNB(M.tuberculosis), the remaining binding at 1 µM came out at 84%. Moreover, the “human MICs” value in [7] came to 13 μL·min^–1·mg^–1. Besides, the “mouse MICs” value in [8] is given as 15 μL·min^–1·mg^–1. Also, the “S-Score(35)” value in data set [10] came to 0.03. Moreover, the “Interactions Mapped” value in data set [10] (468 Assays Tested) was 23.
